Laboratory results from the supplement of paper PMC4649846.

Assays:
MDA-MB-231 [1] = conditions: incubation time: 72 h
Outline: (§1)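 MDA-MB-231 cells transfected a day earlier with siRNA against BRCA1 or non-targeting control siRNA were added at 4000 cells per well to 384-well plates holding compounds at 5 concentrations. After 72 h at 37 °C and 5% CO2, viability was read by CellTiter-Blue fluorescence. IC50 and drug sensitivity score came from logistic dose–response fits in Dotmatics Studies. The score is curve area relative to the area between 10% threshold and 100% inhibition, normalised by log of top response.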

MDA-MB-231 [2] = assay: drug sensitivity score (DSS); higher = more sensitive; extreme values may be limits of the assay; conditions: incubation time: 72 h
Outline: as §1

[3] = siRNA: siControl (non-targeting)

IC50 of cell viability (MDA-MB-231 [1]; siRNA: siBRCA1) [nM]	IC50 of cell viability (MDA-MB-231 [1]; [3]) [nM]	SMILES	drug sensitivity score (MDA-MB-231 [2]; siRNA: siBRCA1)	drug sensitivity score (MDA-MB-231 [2]; [3])
> 4170	> 4170	COc1c2occc2cc2ccc(=O)oc12 [Methoxsalen]	0	0
661	766	CC[C@@]1(O)C(=O)OCc2c1cc1n(c2=O)Cc2cc3c(CN(C)C)c(O)ccc3nc2-1 [Topotecan]	10.4	10.6
1330	96.4	CN(C)/N=N/c1[nH]cnc1C(N)=O [Dacarbazine]	2.68	7.63
377	233	C=CCNC1=C2C[C@@H](C)C[C@H](OC)[C@H](O)[C@@H](C)/C=C(\C)[C@H](OC(N)=O)[C@@H](OC)/C=C\C=C(/C)C(=O)NC(=CC1=O)C2=O [Tanespimycin]	15.1	17.3
2040	1130	O=C(CCCCCCC(=O)Nc1ccccc1)NO [Vorinostat]	6.81	9.94
399	355	COC1=CC(c2cc3ccccc3[nH]2)=N/C1=C\c1[nH]c(C)cc1C [Obatoclax]	15	15
> 4170	> 4170	CC1(C)CNc2cc(NC(=O)c3cccnc3NCc3ccncc3)ccc21 [Motesanib]	0	0
> 4170	> 4170	Cc1cn(-c2cc(NC(=O)c3ccc(C)c(Nc4nccc(-c5cccnc5)n4)c3)cc(C(F)(F)F)c2)cn1 [Nilotinib]	0	0
652	90.5	CN1CCN(CCOc2cc(OC3CCOCC3)c3c(Nc4c(Cl)ccc5c4OCO5)ncnc3c2)CC1 [Saracatinib]	6.55	10.4
> 4170	> 4170	CC(C)(C)NC(=O)[C@H]1CC[C@H]2[C@@H]3CC[C@H]4NC(=O)C=C[C@]4(C)[C@H]3CC[C@]12C [Finasteride]	0	0
> 4170	> 4170	C[C@@H](C(=O)O)c1ccc(-c2ccccc2)c(F)c1 [Tarenflurbil]	0	0
2510	1690	C=CC(=O)Nc1cc2c(Nc3ccc(F)c(Cl)c3)ncnc2cc1OCCCN1CCOCC1 [Canertinib]	5.78	7.67
> 4170	> 4170	Cc1c(C(=O)Nc2ccc(N3C[C@@H](C)O[C@@H](C)C3)nc2)cccc1-c1ccc(OC(F)(F)F)cc1 [NVP-LDE225]	0	0
3350	1680	CN(C)C/C=C/C(=O)Nc1cc2c(Nc3ccc(F)c(Cl)c3)ncnc2cc1O[C@H]1CCOC1 [Afatinib]	4.43	8.65
128	75.7	CO[C@H]1/C=C\C=C(/C)C(=O)NC2=CC(=O)C(NCCN(C)C)=C(C[C@@H](C)C[C@H](OC)[C@H](O)[C@@H](C)/C=C(\C)[C@@H]1OC(N)=O)C2=O [Alvespimycin]	20	22.7
5.67	3.08	CC[C@@H]1C(=O)N(C)c2cnc(Nc3ccc(C(=O)NC4CCN(C)CC4)cc3OC)nc2N1C1CCCC1 [BI 2536]	23.3	24.9
> 4170	> 4170	CN(C)c1nc(N(C)C)nc(N(C)C)n1 [Altretamine]	0	0
125	129	COc1ccc(-c2cc3c(C)nc(N)nc3n([C@H]3CC[C@H](OCCO)CC3)c2=O)cn1	18.9	18.6
205	148	COc1cccc2c1C(=O)c1c(O)c3c(c(O)c1C2=O)C[C@@](O)(C(=O)CO)C[C@@H]3O[C@H]1C[C@H](N)[C@H](O)[C@H](C)O1 [Doxorubicin]	17.9	19.6
1850	1860	COc1cc2/c(=N/c3ccc(Br)cc3F)nc[nH]c2cc1OCC1CCN(C)CC1 [Vandetanib]	7.31	7.25
> 4170	> 4170	Nc1ccccc1NC(=O)c1ccc(CNC(=O)OCc2cccnc2)cc1 [Entinostat]	0	2.12
> 4170	> 4170	C[C@]12CC[C@@H]3c4ccc(O)cc4C[C@@H](CCCCCCCCC[S+]([O-])CCCC(F)(F)C(F)(F)F)[C@H]3[C@@H]1CC[C@@H]2O (some centres undefined) [Fulvestrant]	0	0
> 4170	4070	C[C@@H](Oc1cc(-c2cnn(C3CCNCC3)c2)cnc1N)c1c(Cl)ccc(F)c1Cl [Crizotinib]	0.595	4.02
2770	3520	CCN(CC)CCNC(=O)c1c(C)[nH]c(/C=C2\C(=O)Nc3ccc(F)cc32)c1C [Sunitinib]	5.44	4.28
1230	794	COc1cc2c(cc1O)CC[C@@H]1[C@@H]2CC[C@]2(C)[C@@H](O)CC[C@@H]12 [2-methoxyestradiol]	6.82	8.29
929	713	N[C@@H](CSC(c1ccccc1)(c1ccccc1)c1ccccc1)C(=O)O [S-trityl-L-cysteine]	15.2	15.6
297	363	Cc1ccc(C(=O)Nc2ccc(CN3CCN(C)CC3)c(C(F)(F)F)c2)cc1C#Cc1cnc2cccnn12 [Ponatinib]	16	15.4
1910	1160	CO[C@@H](C(=O)N1Cc2[nH]nc(NC(=O)c3ccc(N4CCN(C)CC4)cc3)c2C1)c1ccccc1 [Danusertib]	6.5	10.1
> 4170	> 4170	CC[C@H](CO)Nc1nc(NCc2ccccc2)c2ncn(C(C)C)c2n1 [Roscovitine]	2.37	0

SMILES	IC50 of cell viability (MDA-MB-231 [1]; siRNA: siBRCA1) [nM]	IC50 of cell viability (MDA-MB-231 [1]; [3]) [nM]	drug sensitivity score (MDA-MB-231 [2]; siRNA: siBRCA1)	drug sensitivity score (MDA-MB-231 [2]; [3])
COCC1(CO)C(=O)C2CCN1CC2 (centres undefined) [Prima-1 Met]	> 4170	> 4170	0	0
NCCCNCCSP(=O)(O)O [Amifostine]	> 4170	> 4170	0	0
